Test results from US6881719B2, “β-turn peptidomimetic cyclic compounds” (McGill University, priority 2000, dated 2005).

Experiments:
[1] = target: T1, cell surface TrkA (4-3.6 cells, p75+ TrkA+) (Homo sapiens, UniProt P04629); experiment: FACScan binding of D3-biotin to 4-3.6 cells
T1 construct: expressed in transfected cells
From the text: (§1) The 4-3.6 cells are B104 cells stably transfected with human trkA cDNA, and express equal levels of p75 and TrkA (TrkA+ p75+). For screening agents that activate or antagonize TrkC receptors, NIH3T3 fibroblasts were stably transfected with human TrkC cDNA. These cells respond to the ligand NT-3. For screening agents that activate or antagonize TrkA receptors, NIH3T3 fibroblasts were stably transfected with human TrkA cDNA. These cells respond to the ligand NGF.
(§2) FACScan binding assays: 4-3.6 cells (2×10^5) in FACScan binding buffer (PBS, 0.5% BSA, and 0.1% NaN3) were immunostained as described (Saragovi et al., 1998). Saturating anti-TrkA mAb 5C3, or anti-p75 mAb MC192, or control non-binding IgGs were added to cells for 1 hour at 4° C., in the presence or absence of D3 as competitor. Excess primary antibody was washed off, and cells were immunostained with fluorescinated goat-anti-mouse IgG secondary antibody. Cells were acquired on a FACScan and mean channel fluorescence of bell-shaped histograms were analyzed using the LYSIS II program.
FACScan analysis featuring the secondary fluorescent agent avidin-FITC was used to detect binding of D3-biotin to the cell surface (Table 1). The 4-3.6 cells (p75+TrkA+) had fluorescence approximately 4 times greater for D3-biotin than for a background control peptide-biotin.

[2] = target: T2, cell surface TrkA (Homo sapiens, UniProt P04629); experiment: FACScan competition of mAb 5C3 binding on 4-3.6 cells; conditions: for % Maximal binding of mAb 5C3: mAb 1 nM
T2 construct: expressed in transfected cells
T2 sequence (P04629 33-796): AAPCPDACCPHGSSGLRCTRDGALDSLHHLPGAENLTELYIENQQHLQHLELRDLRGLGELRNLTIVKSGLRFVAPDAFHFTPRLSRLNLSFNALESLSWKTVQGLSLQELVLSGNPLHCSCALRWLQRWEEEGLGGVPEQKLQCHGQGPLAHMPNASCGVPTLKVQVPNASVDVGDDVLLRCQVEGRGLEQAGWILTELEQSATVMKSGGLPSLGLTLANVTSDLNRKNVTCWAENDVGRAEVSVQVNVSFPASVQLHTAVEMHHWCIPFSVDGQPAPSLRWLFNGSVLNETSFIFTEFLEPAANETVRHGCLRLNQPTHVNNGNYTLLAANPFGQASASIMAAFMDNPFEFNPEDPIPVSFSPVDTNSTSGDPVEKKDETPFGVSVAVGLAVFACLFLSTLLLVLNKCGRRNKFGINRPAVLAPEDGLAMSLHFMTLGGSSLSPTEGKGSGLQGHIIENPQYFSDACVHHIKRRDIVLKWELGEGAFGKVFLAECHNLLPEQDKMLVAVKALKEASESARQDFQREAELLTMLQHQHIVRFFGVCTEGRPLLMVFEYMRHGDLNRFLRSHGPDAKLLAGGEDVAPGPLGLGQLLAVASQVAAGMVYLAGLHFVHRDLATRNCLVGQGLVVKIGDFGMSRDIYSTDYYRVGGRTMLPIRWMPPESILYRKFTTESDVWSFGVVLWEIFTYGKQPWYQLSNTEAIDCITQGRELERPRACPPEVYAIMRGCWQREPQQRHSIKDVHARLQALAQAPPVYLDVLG
From the text: as §1, §2

[3] = target: T3, p75 NGF receptor subunit (Rattus norvegicus, UniProt P07174); experiment: FACScan competition of anti-p75 mAb MC192 binding on 4-3.6 cells; conditions: mAb 1 nM; competitor 40 μM
T3 construct: B104 rat neuroblastomas express p75 receptors; endogenous in cells
T3 sequence (P07174 30-425): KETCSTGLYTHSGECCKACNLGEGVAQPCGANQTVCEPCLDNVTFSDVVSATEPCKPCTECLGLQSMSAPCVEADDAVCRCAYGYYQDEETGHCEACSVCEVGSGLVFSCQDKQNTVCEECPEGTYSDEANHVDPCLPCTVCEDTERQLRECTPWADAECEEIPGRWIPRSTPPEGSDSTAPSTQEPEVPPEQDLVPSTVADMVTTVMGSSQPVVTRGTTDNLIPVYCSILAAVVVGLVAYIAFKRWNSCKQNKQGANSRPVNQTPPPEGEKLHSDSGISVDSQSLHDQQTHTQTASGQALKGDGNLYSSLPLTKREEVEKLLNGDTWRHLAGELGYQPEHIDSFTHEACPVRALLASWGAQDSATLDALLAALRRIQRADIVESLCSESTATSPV
From the text: as §1, §2

[4] = system: embryonic rat DRG primary neuronal cultures; experiment: Cell survival (MTT), primary DRG cultures; format: cell-based; conditions: 8 days;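 for % Protection: 100% equals survival with optimal NGF at 1 nM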
Method: Fetal rat DRG primary cultures were established from Sprague Dawley day 17 rat embryos. All ganglia were dissected and dissociated first enzymatically with trypsin and then mechanically. Dissociated cells were cultured (10^5 cells/well) in 96 well plates pre-coated with collagen, and grown for a total of 8 days in Neuro Basal Medium containing N2 supplement (GIBCO, Toronto), antibiotics, and L-glutamine. These DRG cultures are ˜85% TrkA-expressing and are heavily dependent on TrkA signals for survival.
Primary DRG cultures: After a total of 8 days of culture with the indicated test or control ligands, cell survival were studied using the 3(4,5-Dimethylthiazolyl-2)-2,5-diphenyl tetrazolium bromide colorimetric (MTT) assay, and by microscopic observation.
(§3) Cell lines: 5,000 cells/well in protein-free media (PFHM-II, GIBCO, Toronto) containing 0.2% bovine serum albumin (BSA) (Crystalline fraction V, Sigma, St. Louis, Mo.) were seeded in 96 well plates (Falcon, Mississauga, Ontario). The cultures were untreated, or treated with the indicated test or control ligands. Cell viability was quantitated using the MTT assay after 56-72 hours of culture. […] The OD of untreated cells were subtracted. The higher optical density of untreated primary cultures is likely due to cellular heterogeneity and to endogenous production of limiting amounts of growth factors.

[5] = system: 4-3.6 cells (p75+TrkA+); experiment: Cell survival (MTT), 4-3.6 cells; format: cell-based, rat; conditions: 72 hours;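 for % Protection: 100% equals survival with optimal NGF at 1 nM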
From the text: as §1, §3

[6] = target: T4, HEK 293 cells expressing TrkB/TrkA IgG-C2 chimeric receptor (Homo sapiens, UniProt P04629+Q16620); experiment: Cell survival (MTT), HEK 293-TrkB/TrkA IgG-C2 chimera; format: cell-based; conditions: HEK 293-TrkB/TrkA chimera, 72 hours;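 for % Protection: 100% equals survival with optimal NGF at 1 nM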
T4 construct: The IgG-C2 domain of human TrkA was generated using unique restriction sites; expressed in transfected cells
T4 sequence (P04629 299-365 limits assumed, change not shown, one chain of several): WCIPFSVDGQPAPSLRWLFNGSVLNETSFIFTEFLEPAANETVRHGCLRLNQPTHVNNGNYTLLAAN
From the text: The IgG-C2 domain of human TrkA was generated using unique restriction sites in the primers to allow exchange with the corresponding rat TrkB domain. The chimeric receptors were constructed by subcloning the human TrkA IgG-C2 domain into the corresponding restriction sites of the rat trkB cDNA reported in a previous work (Perez et al., 1995). Chimeric constructs were confirmed by sequencing, and were cloned into the pCDNA3 expression vector that contains a selection gene providing resistance to neomycin (G418, GIBCO). HEK293 cells were transfected using the lipofectamine plus method (GIBCO), selected with neomycin (0.5 mg/ml) and at least 3 independent subclones were obtained by limiting dilution techniques (293-TrkB/A-IgC2 chimera).
(§4) Cell lines: 5,000 cells/well in protein-free media (PFHM-II, GIBCO, Toronto) containing 0.2% bovine serum albumin (BSA) (Crystalline fraction V, Sigma, St. Louis, Mo.) were seeded in 96 well plates (Falcon, Mississauga, Ontario). The cultures were untreated, or treated with the indicated test or control ligands. Cell viability was quantitated using the MTT assay after 56-72 hours of culture. […] The OD of untreated cells were subtracted.

[7] = target: T5, NIH3T3 fibroblasts expressing TrkA (Homo sapiens, UniProt P04629); experiment: Cell survival (MTT), NIH-TrkA; format: cell-based; conditions: for NIH-TrkA % Protection: 72 hours;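 for NIH-TrkA % Protection: 100% equals survival with optimal NGF at 1 nM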
T5 construct: expressed in transfected cells; host or cells: NIH3T3 fibroblasts
T5 sequence (P04629 33-796): as the sequence (P04629 33-796) above
From the text: The 4-3.6 cells are B104 cells stably transfected with human trkA cDNA, and express equal levels of p75 and TrkA (TrkA+ p75+). For screening agents that activate or antagonize TrkC receptors, NIH3T3 fibroblasts were stably transfected with human TrkC cDNA. […] For screening agents that activate or antagonize TrkA receptors, NIH3T3 fibroblasts were stably transfected with human TrkA cDNA.
as §4

[8] = system: wild type NIH3T3 fibroblasts; experiment: Cell survival (MTT), NIH wt; format: cell-based; conditions: 72 hours
From the text: as §1, §3

[9] = system: B104 cells; experiment: Cell survival control, B104 cells; format: cell-based, rat
From the text: as §1, §3

T1 sequence (P04629 33-796): as above

NCCCC[C@@H]1NC(=O)[C@H](CCC(=O)O)NC(=O)c2cc([N+](=O)[O-])ccc2OCCC(C(=O)NCC(=O)O)NC1=O (stereo partly shown) [D3, EKHse-G-OH]
competition of D3-biotin binding ([1]; 10-fold molar excess of D3): abolished binding of D3-biotin
MCF (mean channel fluorescence) ([1]; D3-biotin 20 μM + D3 200 μM as competitor): 17 ± 7
Kd ([2]; estimated from experimental conditions, read-out: Kd for D3•TrkA interactions): ~2 µM
IC50 ([2]; intact 4-3.6 cells, on average, read-out: IC50, decrease of mAb 5C3•TrkA interactions): 4 µM
% Maximal binding of mAb 5C3 ([2]; competitor 0.20 μM): 95 ± 4%
% Maximal binding of mAb 5C3 ([2]; competitor 1 μM): 80 ± 3%
% Maximal binding of mAb 5C3 ([2]; competitor 5 μM): 53 ± 5%
% Maximal binding of mAb 5C3 ([2]; competitor 40 μM): 33 ± 4%
% Maximal binding of mAb MC192 [3]: 101 ± 2%
% Protection ([4]; compound 10 μM + NGF 20 pM): 48 ± 3%
Optical Density ([4]; compound 10 μM + NGF 20 pM): 471 ± 28
% Protection ([4]; compound 10 μM + NGF 500 pM): 84 ± 3%
Optical Density ([4]; compound 10 μM + NGF 500 pM): 603 ± 26
% Protection ([4]; compound 10 μM + NGF 1 nM): 120 ± 7%
Optical Density ([4]; compound 10 μM + NGF 1 nM): 977 ± 38
% Protection ([4]; compound 10 μM alone): 38 ± 2%
Optical Density ([4]; compound 10 μM alone): 405 ± 22
% Protection ([5]; compound 10 μM + 10 pM NGF): 55 ± 3%
Optical Density ([5]; compound 10 μM + 10 pM NGF): 255 ± 14
% Protection ([5]; compound 10 μM alone): 8 ± 2%
Optical Density ([5]; compound 10 μM alone): 95 ± 9
% Protection ([6]; compound 10 μM + 10 pM NGF): 42 ± 5%
Optical Density ([6]; compound 10 μM + 10 pM NGF): 165 ± 11
% Protection ([6]; compound 10 μM alone): 9 ± 3%
Optical Density ([6]; compound 10 μM alone): 69 ± 7
enhancement of NGF protection ([7]; NIH3T3 cells stably transfected with TrkA cDNA): enhanced NGF protection
NIH-TrkA % Protection ([7]; agent 10 μM + 10 pM NGF): 51 ± 5%
NIH-TrkA % Protection ([7]; agent 10 μM alone): 8 ± 4%
NIH wt % Protection ([8]; agent 10 μM + 10 pM NGF): 0 ± 3%
NIH wt % Protection ([8]; agent 10 μM alone): −3 ± 5%
protection from apoptosis [9]: neither D3 nor NGF protected
